Values after ≈ are worked out from the molar mass of the structure shown.
How the values were obtained:
Assay type in all cases: cell-based
[1] = system: Bordetella bronchiseptica ATCC 4617; experiment: Broth microdilution MIC/MBC
Procedure, shortened: (§1)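 Strains were subcultured on nutrient or Sabouraud agar, suspended to 0.5 McFarland in saline, then added to wells holding two-fold compound dilutions. Final concentrations ranged 1000 to 0.488 µg/ml in Mueller-Hinton broth or RPMI 1640 with MOPS.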

[2] = system: Escherichia coli ATCC 25922; experiment: Broth microdilution MIC/MBC
Procedure, shortened: as §1

[3] = system: Enterococcus faecalis ATCC 29212; experiment: Broth microdilution MIC/MBC; conditions: for MBC: ATCC29212, read-out: MBC; for MIC: ATCC29212, read-out: MIC
Procedure, shortened: as §1

[4] = system: Klebsiella pneumoniae ATCC 13883; experiment: Broth microdilution MIC/MBC
Procedure, shortened: as §1

[5] = system: Bacillus cereus ATCC 10876; experiment: Broth microdilution MIC/MBC; conditions: for MBC: ATCC10876; for MIC: ATCC10876, read-out: MIC
Procedure, shortened: as §1

[6] = system: Bacillus subtilis ATCC 6633; experiment: Broth microdilution MIC/MBC; conditions: for MBC: ATCC6633; for MIC: ATCC6633, read-out: MIC
Procedure, shortened: as §1

[7] = system: Pseudomonas aeruginosa ATCC 9027; experiment: Broth microdilution MIC/MBC
Procedure, shortened: as §1

[8] = system: Staphylococcus epidermidis ATCC 12228; experiment: Broth microdilution MIC/MBC; conditions: for MIC: ATCC12228, read-out: MIC; for MBC: ATCC12228
Procedure, shortened: as §1

[9] = system: Candida albicans ATCC 10231; experiment: Broth microdilution MIC/MFC; conditions: for MFC: ATCC10231, read-out: MFC; for MIC: ATCC10231, read-out: MIC
Procedure, shortened: as §1

[10] = system: Candida parapsilosis ATCC 22019; experiment: Broth microdilution MIC/MFC; conditions: for MFC / MIC: Lodderomyces parapsilosis; for MFC: ATCC22019, read-out: MFC; for MIC: ATCC22019, read-out: MIC
Procedure, shortened: as §1

[11] = system: Candida krusei ATCC 14243; experiment: Broth microdilution MIC/MFC; conditions: for MFC / MIC: Pichia kudriavzevii; for MFC: ATCC14243, read-out: MFC; for MIC: ATCC14243, read-out: MIC
Procedure, shortened: as §1

[12] = system: Candida albicans ATCC 2091; experiment: Broth microdilution MIC/MFC; conditions: for MFC: ATCC2091, read-out: MFC; for MIC: ATCC2091, read-out: MIC
Procedure, shortened: as §1

[13] = system: Candida glabrata ATCC 90030; experiment: Broth microdilution MIC/MFC; conditions: for MIC: ATCC90030, read-out: MIC
Procedure, shortened: as §1

| SMILES | MIC ([1]; ATCC4617) [µg/mL] | MIC ([2]; ATCC25922) [µg/mL] | MIC [3] [µg/mL] | MIC ([4]; ATCC13883) [µg/mL] | MIC [5] [µg/mL] | MIC [6] [µg/mL] | MIC ([7]; ATCC9027) [µg/mL] | MIC [8] [µg/mL] | MFC/MIC [9] | MFC [9] [µg/mL] | MIC [9] [µg/mL] | MFC/MIC [10] | MFC [10] [µg/mL] | MIC [10] [µg/mL] | MFC/MIC [11] | MFC [11] [µg/mL] | MIC [11] [µg/mL] | MFC/MIC [12] | MFC [12] [µg/mL] | MIC [12] [µg/mL] | also measured |
| --- | --- | --- | --- | --- | --- | --- | --- | --- | --- | --- | --- | --- | --- | --- | --- | --- | --- | --- | --- | --- | --- |
| O=C(N/N=C/c1ccccc1F)c1ccc(O)cc1O [Compound 24, N-[(2-fluorophenyl)methylidene]-2,4-dihydroxybenzohydrazide] | > 1000 | > 1000 | 1000 (≈ 3.65 mM) | > 1000 | 1000 (≈ 3.65 mM) | 500 (≈ 1.82 mM) | > 1000 | > 1000 | > 1 | > 1000 | 1000 (≈ 3.65 mM) | > 1 | > 1000 | 1000 (≈ 3.65 mM) | > 1 | > 1000 | 1000 (≈ 3.65 mM) | > 1 | > 1000 | 1000 (≈ 3.65 mM) | MBC/MIC [3]: > 1; MBC [3]: > 1000 µg/mL; MBC/MIC [5]: > 1; MBC [5]: > 1000 µg/mL; MBC/MIC [6]: > 2; MBC [6]: > 1000 µg/mL; MIC ([13]; Nakaseomyces glabratus): > 1000 µg/mL |
| O=C(N/N=C/c1ccc([N+](=O)[O-])cc1)c1ccc(O)cc1O [Compound 21, 2,4-dihydroxy-N-[(4-nitrophenyl)methylidene]benzohydrazide] | > 1000 | > 1000 | 500 (≈ 1.66 mM) | > 1000 | 500 (≈ 1.66 mM) | 500 (≈ 1.66 mM) | > 1000 | 500 (≈ 1.66 mM) | > 2 | > 1000 | 500 (≈ 1.66 mM) | > 2 | > 1000 | 500 (≈ 1.66 mM) | > 2 | > 1000 | 500 (≈ 1.66 mM) | > 1 | > 1000 | 1000 (≈ 3.32 mM) | MBC/MIC [3]: > 4; MBC [3]: > 1000 µg/mL; MBC/MIC [5]: > 2; MBC [5]: > 1000 µg/mL; MBC/MIC [6]: > 2; MBC [6]: > 1000 µg/mL; MBC/MIC [8]: > 2; MBC [8]: > 1000 µg/mL; MIC ([13]; Nakaseomyces glabratus): > 1000 µg/mL |
| O=C(N/N=C/c1ccccc1[N+](=O)[O-])c1ccc(O)cc1O [Compound 19, 2,4-dihydroxy-N-[(2-nitrophenyl)methylidene]benzohydrazide] | 1000 (≈ 3.32 mM) | 1000 (≈ 3.32 mM) | 500 (≈ 1.66 mM) | 500 (≈ 1.66 mM) | 250 (≈ 0.83 mM) | 250 (≈ 0.83 mM) | 1000 (≈ 3.32 mM) | 500 (≈ 1.66 mM) | > 4 | > 1000 | 250 (≈ 0.83 mM) | > 4 | > 1000 | 250 (≈ 0.83 mM) | > 2 | > 1000 | 500 (≈ 1.66 mM) | > 2 | > 1000 | 500 (≈ 1.66 mM) | MBC/MIC [1]: > 1; MBC ([1]; ATCC4617): > 1000 µg/mL; MBC/MIC [2]: > 1; MBC ([2]; ATCC25922): > 1000 µg/mL; MBC/MIC [3]: > 2; MBC [3]: > 1000 µg/mL; MBC/MIC [4]: > 1; MBC ([4]; ATCC13883): > 1000 µg/mL; MBC/MIC [5]: > 4; MBC [5]: > 1000 µg/mL; MBC/MIC [6]: > 4; MBC [6]: > 1000 µg/mL; MBC/MIC [7]: > 1; MBC ([7]; ATCC9027): > 1000 µg/mL; MBC/MIC [8]: > 2; MBC [8]: > 1000 µg/mL; MFC/MIC [13]: > 2; MFC ([13]; Nakaseomyces glabratus, ATCC90030, read-out: MFC): > 1000 µg/mL; MIC ([13]; Nakaseomyces glabratus): 500 µg/mL (≈ 1.66 mM) |
| O=C(N/N=C/c1ccccc1Cl)c1ccc(O)cc1O [Compound 22, N-[(2-chlorophenyl)methylidene]-2,4-dihydroxybenzohydrazide] | > 1000 | > 1000 | > 1000 | > 1000 | > 1000 | > 1000 | > 1000 | 1000 (≈ 3.44 mM) | > 1 | > 1000 | 1000 (≈ 3.44 mM) | > 1 | > 1000 | 1000 (≈ 3.44 mM) | > 1 | > 1000 | 1000 (≈ 3.44 mM) | > 1 | > 1000 | 1000 (≈ 3.44 mM) | MBC/MIC [8]: > 1; MBC [8]: > 1000 µg/mL; MIC ([13]; Nakaseomyces glabratus): > 1000 µg/mL |

— PMC10743905, “Design, Synthesis, and In Vitro and In Vivo Bioactivity Studies of Hydrazide–Hydrazones of 2,4-Dihydroxybenzoic Acid” (International Journal of Molecular Sciences, 2023)
